Test results taken from ChEMBL document CHEMBL6121036, “Evaluation of Cereblon-Directing Warheads for the Development of Orally Bioavailable PROTACs” (J Med Chem, 2025).
Values after ≈ are worked out from the molar mass of the structure shown. Active and inactive are the calls of the source. The calls are words filed in the database; no cut-off is given here.

Key:
[1] = Metabolic stability in mouse liver microsomes assessed as half life; format: ADME, Microsome; conditions: liver microsomes
[2] = test system: HD-MB03; test: Cytotoxicity against human HD-MB03 cells assessed as reduction in cell viability incubated for 72 hrs by cell-titer glo assay; format: functional, cell-based; conditions: HD-MB03, 72 h
[3] = test system: MV4-11; test: Cytotoxicity against human MV4-11 cells assessed as reduction in cell viability incubated for 72 hrs by cell-titer glo assay; format: functional, cell-based; conditions: MV4-11, 72 h
[4] = molecular target: Protein cereblon/Bromodomain-containing protein 4/DNA damage-binding protein 1 (Homo sapiens) (UniProt O60885+Q96SW2+Q16531); test: Binding affinity to his-tagged CRBN/DDB1/GST-tagged BRD4 (49 to 170 residues)(unknown origin) assessed as ternary complex formation (AUC) incubated for 1 hr by luminescence based Alphascreen assay; format: protein assay
[5] = molecular target: T1, Protein cereblon/Bromodomain-containing protein 4 (Homo sapiens, UniProt O60885+Q96SW2); test: PROTAC activity at CRBN/Hibit-tagged BRD4 (unknown origin) expressed in HEK293 cells co-expressing LgBiT assessed as degradation rate incubated for 24 hrs by […] glo-max assay; format: cell-based
[6] = molecular target: T1, Protein cereblon/Bromodomain-containing protein 4; test: PROTAC activity at CRBN/Hibit-tagged BRD4 (unknown origin) expressed in HEK293 cells co-expressing LgBiT assessed as degradation of BRD4 incubated for 24 hrs by […] glo-max assay relative to control; format: cell-based
[7] = Kinetic aqueous solubility of the compound at pH 7.4; format: physicochemical; conditions: read-out: Kinetic_solubility
[8] = test system: HEK293; test: Cytotoxicity against HEK293 cells expressing LgBiT fused HiBiT-BRD2 measured after 24 hrs by cell titer-glo assay; format: toxicity, cell-based; conditions: human, hek293, 24 h
[9] = molecular target: T1, Protein cereblon/Bromodomain-containing protein 4; test: PROTAC activity at CRBN/Hibit-tagged BRD4 (unknown origin) expressed in HEK293 cells co-expressing LgBiT assessed as degradation of BRD4 incubated for 24 hrs by […] glo-max assay; format: cell-based
[10] = Effect on BRD2 level in human MV4-11 cells assessed as fold change at 100 nM measured after 4 hrs; format: functional
[11] = Effect on BRD4 level in human MV4-11 cells assessed as fold change at 100 nM measured after 4 hrs; format: functional
[12] = Effect on MYC level in human MV4-11 cells assessed as fold change at 100 nM measured after 4 hrs; format: functional
[13] = Effect on CCNF level in human MV4-11 cells assessed as fold change at 100 nM measured after 4 hrs; format: functional
[14] = Effect on CDC42EP3 level in human MV4-11 cells assessed as fold change at 100 nM measured after 4 hrs; format: functional
[15] = Effect on AURKA level in human MV4-11 cells assessed as fold change at 100 nM measured after 4 hrs; format: functional
[16] = Effect on ZFP36L2 level in human MV4-11 cells assessed as fold change at 100 nM measured after 4 hrs; format: functional
[17] = Effect on FYTTD1 level in human MV4-11 cells assessed as fold change at 100 nM measured after 4 hrs; format: functional
[18] = Effect on NSA2 level in human MV4-11 cells assessed as fold change at 100 nM measured after 4 hrs; format: functional
[19] = Effect on PLAU level in human MV4-11 cells assessed as fold change at 100 nM measured after 4 hrs; format: functional
[20] = molecular target: Protein cereblon/Bromodomain-containing protein 3 (Homo sapiens) (UniProt Q15059+Q96SW2); test: PROTAC activity at CRBN/Hibit-tagged CRISPR BRD3 (unknown origin) expressed in HEK293 cells co-expressing LgBiT assessed as degradation of BRD3 by […] glo-max assay; format: cell-based
[21] = Effect on CCND3 level in human MV4-11 cells assessed as fold change at 100 nM measured after 4 hrs; format: functional
[22] = Effect on ZBTB21 level in human MV4-11 cells assessed as fold change at 100 nM measured after 4 hrs; format: functional
[23] = molecular target: Protein cereblon/Bromodomain-containing protein 2 (Homo sapiens) (UniProt P25440+Q96SW2); test: PROTAC activity at CRBN/Hibit-tagged CRISPR BRD2 (unknown origin) expressed in HEK293 cells coexpressing LgBiT assessed as degradation of BRD2 by […] glo-max assay; format: cell-based
[24] = molecular target: T1, Protein cereblon/Bromodomain-containing protein 4; test: PROTAC activity at CRBN/Hibit-tagged CRISPR BRD4 (unknown origin) expressed in HEK293 cells co-expressing LgBiT assessed as degradation of BRD4 by […] glo-max assay; format: cell-based
[25] = Effect on PLK1 level in human MV4-11 cells assessed as fold change at 100 nM measured after 4 hrs; format: functional
[26] = Stability in mouse plasma assessed as half life by UPLC-MS/MS analysis; format: ADME, cell-free
[27] = Effect on RNF166 level in human MV4-11 cells assessed as fold change at 100 nM measured after 4 hrs; format: functional
[28] = Effect on TP53 level in human MV4-11 cells assessed as fold change at 100 nM measured after 4 hrs; format: functional
[29] = Effect on FGL2 level in human MV4-11 cells assessed as fold change at 100 nM measured after 4 hrs; format: functional
[30] = Effect on NOP53 level in human MV4-11 cells assessed as fold change at 100 nM measured after 4 hrs; format: functional
[31] = Effect on MCL1 level in human MV4-11 cells assessed as fold change at 100 nM measured after 4 hrs; format: functional
[32] = Permeability in MDCK-II cells incubated for 1 hr by UPLC/MS/UV analysis; format: ADME, cell-based, Canis lupus familiaris; conditions: dog, read-out: permeability
[33] = Effect on BRD3 level in human MV4-11 cells assessed as fold change at 100 nM measured after 4 hrs; format: functional

Cc1sc2c(c1C)C(c1ccc(Cl)cc1)=N[C@@H](CC(=O)OC(C)(C)C)c1nnc(C)n1-2
half-life [1]: 13.8 min

Cc1sc2c(c1C)C(c1ccc(Cl)cc1)=N[C@@H](CC(=O)N1CC(COc3ccc(C4CCC(=O)NC4=O)cc3)C1)c1nnc(C)n1-2 (some centres undefined)
IC50 [2]: 38.2 nM | IC50 [3]: 3.1 nM | Activity [4]: Active | Activity [5]: 0.07 fRLU/hr | Emax [6]: 40.4% | solubility kinetic [7]: 21.3 µM (≈ 14 µg/mL) | Activity [8]: Non-toxic | half-life [1]: 16.8 min | DC50 [9]: 13.9 nM

Cc1sc2c(c1C)C(c1ccc(Cl)cc1)=N[C@@H](CC(=O)N1CCC(CN3CCN(c4cc5c(cc4F)C(=O)N(C4CCC(=O)NC4=O)C5=O)CC3)CC1)c1nnc(C)n1-2 (some centres undefined)
IC50 [2]: 84 nM | IC50 [3]: 3.23 nM | fold change (FC) [10]: -3.06 | Activity [4]: Active | Activity [5]: 0.143 fRLU/hr | fold change (FC) [11]: -3.89 | fold change (FC) [12]: -2.29 | fold change (FC) [13]: -1.86 | Emax [6]: 88.6% | fold change (FC) [14]: -1.41 | fold change (FC) [15]: -0.84 | solubility kinetic [7]: 73.4 µM (≈ 61.7 µg/mL) | fold change (FC) [16]: -1.09 | fold change (FC) [17]: -1.52 | fold change (FC) [18]: -1.04 | fold change (FC) [19]: -1.14 | half-life [1]: 16.8 min | Activity [20]: Active; Less Potent Than Protac 8 | fold change (FC) [21]: -0.96 | fold change (FC) [22]: -0.02 | Activity [23]: Active; Less Potent Than Protac 8 | DC50 [9]: 6.28 nM | Activity [24]: Active; Less Potent Than Protac 8 | fold change (FC) [25]: -0.75 | half-life [26]: 822 min | fold change (FC) [27]: -1.01 | fold change (FC) [28]: 1.82 | fold change (FC) [29]: -1.1 | fold change (FC) [30]: -0.81 | fold change (FC) [31]: -1.22 | Papp at 1 h [32]: 10.5 ×10⁻⁶ cm/s | fold change (FC) [33]: -3.93

Cc1sc2c(c1C)C(c1ccc(Cl)cc1)=N[C@@H](CC(=O)NCCCOc1ccc(C3CCC(=O)NC3=O)cc1)c1nnc(C)n1-2 (some centres undefined)
IC50 [2]: 3.27 nM | IC50 [3]: 0.23 nM | Activity [4]: Active | Activity [5]: 0.264 fRLU/hr | Emax [6]: 97.3% | solubility kinetic [7]: 52.8 µM (≈ 34.1 µg/mL) | Activity [8]: Non-toxic | half-life [1]: 9.6 min | DC50 [9]: 0.75 nM

Cc1sc2c(c1C)C(c1ccc(Cl)cc1)=N[C@@H](CC(=O)N1CCC(CN3CCN(c4ccc(NC5CCC(=O)NC5=O)c(F)c4)CC3)CC1)c1nnc(C)n1-2 (some centres undefined)
IC50 [2]: 14.3 nM | IC50 [3]: 0.96 nM | fold change (FC) [10]: -3.07 | Activity [4]: Active | Activity [5]: 0.093 fRLU/hr | fold change (FC) [11]: -3.41 | fold change (FC) [12]: -2.23 | fold change (FC) [13]: -1.62 | Emax [6]: 79.1% | fold change (FC) [14]: -1.17 | fold change (FC) [15]: -0.77 | solubility kinetic [7]: 71.1 µM (≈ 55.9 µg/mL) | fold change (FC) [16]: -0.97 | fold change (FC) [17]: -1.46 | fold change (FC) [18]: -1.03 | fold change (FC) [19]: -1.06 | half-life [1]: 112 min | Activity [20]: Active; Less Potent Than Protac 8 | fold change (FC) [21]: -0.82 | fold change (FC) [22]: -0.09 | Activity [23]: Active; Less Potent Than Protac 8 | DC50 [9]: 2.31 nM | Activity [24]: Active; Less Potent Than Protac 8 | fold change (FC) [25]: -0.65 | half-life [26]: 1180 min | fold change (FC) [27]: -0.33 | fold change (FC) [28]: 1.71 | fold change (FC) [29]: -0.95 | fold change (FC) [30]: -0.82 | fold change (FC) [31]: -1.06 | fold change (FC) [33]: -3.87

Cc1sc2c(c1C)C(c1ccc(Cl)cc1)=N[C@@H](CC(=O)N1CCN(c3cccc(C4CCC(=O)NC4=O)c3)CC1)c1nnc(C)n1-2 (some centres undefined)
IC50 [2]: 90.7 nM | IC50 [3]: 6.36 nM | Activity [4]: Active; Lower Ternary Complex Auc Formation Observed | Activity [5]: 0.005 fRLU/hr | Emax [6]: 12.3% | solubility kinetic [7]: 21.5 µM (≈ 14.1 µg/mL) | Activity [8]: Non-toxic | half-life [1]: 17.4 min | DC50 [9]: > 10000 nM

Cc1sc2c(c1C)C(c1ccc(Cl)cc1)=N[C@@H](CC(=O)N1CCN(CC3CCN(c4ccc(C5CCC(=O)NC5=O)cc4)CC3)CC1)c1nnc(C)n1-2 (some centres undefined)
IC50 [2]: 1.96 nM | IC50 [3]: 0.22 nM | Activity [4]: Active | Activity [5]: 0.245 fRLU/hr | Emax [6]: 96.9% | solubility kinetic [7]: 64.5 µM (≈ 48.6 µg/mL) | Activity [8]: Non-toxic | half-life [1]: 130 min | DC50 [9]: 0.43 nM

Cc1sc2c(c1C)C(c1ccc(Cl)cc1)=N[C@@H](CC(=O)N1CCN(c3ccc(C4CCC(=O)NC4=O)cc3)CC1)c1nnc(C)n1-2 (some centres undefined)
IC50 [2]: 250 nM | IC50 [3]: 18.6 nM | Activity [4]: Active; Lower Ternary Complex Auc Formation Observed | Activity [5]: 0.005 fRLU/hr | Emax [6]: 10.6% | solubility kinetic [7]: 17 µM (≈ 11.2 µg/mL) | Activity [8]: Non-toxic | half-life [1]: 12 min | DC50 [9]: > 10000 nM
